# According to US20260193264A1, “BENZOYPARAZINE PYRAZINES AND THEIR USES” (FOGHORN THERAPEUTICS INC., priority 2022, published 2026):
# What was measured:
# [1] = biological target: T1, HiBiT-BRM fusion protein in stable HeLa cell line (Homo sapiens, UniProt P51531); experiment: HiBiT-BRM cell-based degradation assay (Nano-Glo HiBiT Lytic Detection, 24 h); set-up: DC50: scale not given here; conditions: HeLa HiBiT-BRM cells; for DC50: read-out: BRM HiBit Degradation IC50; for BRM HiBit Degradation Maximum (%): top dose 30 μM
# T1 construct: expressed in transfected cells
# Procedure, shortened: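 Percent degradation was scaled between DMSO-treated cells and cells given 2 μM of a known BRM/BRG1 degrader. Readout was NanoBiT luminescence after lytic detection. HeLa cells stably expressing HiBiT-BRM were dosed for 24 h, 10 points, 3-fold steps from 30 μM final, in duplicate.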
# [2] = biological target: T2, HiBit-BRG1 fusion protein in stable HeLa cell line expressing HiBit-BRG1 and LgBit (Homo sapiens, UniProt P51532); experiment: HiBiT-BRG1 cell-based degradation assay (Nano-Glo HiBiT, 24 h); conditions: HeLa HiBit-BRG1/LgBit cells; for Dmax: top dose 30 μM, read-out: BRG1 HiBit Degradation Maximum (%); for DC50: read-out: BRMG1 HiBit Degradation IC50
# T2 construct: expressed in transfected cells
# Procedure, shortened: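 Degradation calculated from NanoBiT luminescence relative to DMSO-treated cells (high) and cells given 2 μM known BRM/BRG1 degrader (low). HeLa cells stably expressing HiBiT-BRG1 plus LgBiT were exposed to compound for 24 h before lytic HiBiT detection.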
# T1 sequence (P51531 whole entry, the tested form may be a part): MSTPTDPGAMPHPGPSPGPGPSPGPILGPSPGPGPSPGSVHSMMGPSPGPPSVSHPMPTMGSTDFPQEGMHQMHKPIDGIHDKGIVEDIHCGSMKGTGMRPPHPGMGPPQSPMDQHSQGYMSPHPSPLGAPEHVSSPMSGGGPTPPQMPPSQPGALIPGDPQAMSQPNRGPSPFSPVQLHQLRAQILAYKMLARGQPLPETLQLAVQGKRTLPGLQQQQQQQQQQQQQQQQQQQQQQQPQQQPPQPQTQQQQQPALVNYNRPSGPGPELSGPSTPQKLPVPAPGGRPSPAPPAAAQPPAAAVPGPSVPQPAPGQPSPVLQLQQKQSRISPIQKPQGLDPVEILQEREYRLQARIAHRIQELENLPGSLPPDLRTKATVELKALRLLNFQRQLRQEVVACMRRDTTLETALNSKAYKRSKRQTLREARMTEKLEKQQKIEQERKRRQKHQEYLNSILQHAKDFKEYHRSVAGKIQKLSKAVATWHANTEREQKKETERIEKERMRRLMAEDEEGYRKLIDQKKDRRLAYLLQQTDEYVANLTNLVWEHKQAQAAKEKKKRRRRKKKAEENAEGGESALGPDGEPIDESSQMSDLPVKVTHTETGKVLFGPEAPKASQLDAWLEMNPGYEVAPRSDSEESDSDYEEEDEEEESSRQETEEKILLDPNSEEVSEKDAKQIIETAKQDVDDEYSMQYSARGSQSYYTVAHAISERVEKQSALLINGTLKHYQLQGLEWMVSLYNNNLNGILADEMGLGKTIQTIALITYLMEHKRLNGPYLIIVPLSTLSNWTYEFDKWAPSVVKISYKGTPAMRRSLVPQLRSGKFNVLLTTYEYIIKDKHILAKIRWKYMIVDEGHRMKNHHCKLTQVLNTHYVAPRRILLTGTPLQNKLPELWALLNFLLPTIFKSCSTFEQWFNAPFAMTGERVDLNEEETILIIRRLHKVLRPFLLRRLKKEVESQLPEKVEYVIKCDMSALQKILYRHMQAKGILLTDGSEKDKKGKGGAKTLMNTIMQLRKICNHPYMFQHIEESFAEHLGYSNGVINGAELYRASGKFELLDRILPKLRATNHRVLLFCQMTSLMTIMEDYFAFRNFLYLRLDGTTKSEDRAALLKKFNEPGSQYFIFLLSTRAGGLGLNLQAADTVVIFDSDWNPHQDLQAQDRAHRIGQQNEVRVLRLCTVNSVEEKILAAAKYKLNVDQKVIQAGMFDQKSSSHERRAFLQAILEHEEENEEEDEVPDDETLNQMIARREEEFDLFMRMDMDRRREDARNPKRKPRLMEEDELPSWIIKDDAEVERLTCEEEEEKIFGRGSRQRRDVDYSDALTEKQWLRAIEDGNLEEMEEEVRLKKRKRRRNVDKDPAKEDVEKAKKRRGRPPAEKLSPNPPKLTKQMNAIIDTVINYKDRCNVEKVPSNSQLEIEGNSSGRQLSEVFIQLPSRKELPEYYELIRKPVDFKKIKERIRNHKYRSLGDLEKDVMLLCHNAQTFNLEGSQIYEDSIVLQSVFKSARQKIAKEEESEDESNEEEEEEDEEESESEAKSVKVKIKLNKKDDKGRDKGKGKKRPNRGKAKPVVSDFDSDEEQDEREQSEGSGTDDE
# T2 sequence (P51532 whole entry, the tested form may be a part): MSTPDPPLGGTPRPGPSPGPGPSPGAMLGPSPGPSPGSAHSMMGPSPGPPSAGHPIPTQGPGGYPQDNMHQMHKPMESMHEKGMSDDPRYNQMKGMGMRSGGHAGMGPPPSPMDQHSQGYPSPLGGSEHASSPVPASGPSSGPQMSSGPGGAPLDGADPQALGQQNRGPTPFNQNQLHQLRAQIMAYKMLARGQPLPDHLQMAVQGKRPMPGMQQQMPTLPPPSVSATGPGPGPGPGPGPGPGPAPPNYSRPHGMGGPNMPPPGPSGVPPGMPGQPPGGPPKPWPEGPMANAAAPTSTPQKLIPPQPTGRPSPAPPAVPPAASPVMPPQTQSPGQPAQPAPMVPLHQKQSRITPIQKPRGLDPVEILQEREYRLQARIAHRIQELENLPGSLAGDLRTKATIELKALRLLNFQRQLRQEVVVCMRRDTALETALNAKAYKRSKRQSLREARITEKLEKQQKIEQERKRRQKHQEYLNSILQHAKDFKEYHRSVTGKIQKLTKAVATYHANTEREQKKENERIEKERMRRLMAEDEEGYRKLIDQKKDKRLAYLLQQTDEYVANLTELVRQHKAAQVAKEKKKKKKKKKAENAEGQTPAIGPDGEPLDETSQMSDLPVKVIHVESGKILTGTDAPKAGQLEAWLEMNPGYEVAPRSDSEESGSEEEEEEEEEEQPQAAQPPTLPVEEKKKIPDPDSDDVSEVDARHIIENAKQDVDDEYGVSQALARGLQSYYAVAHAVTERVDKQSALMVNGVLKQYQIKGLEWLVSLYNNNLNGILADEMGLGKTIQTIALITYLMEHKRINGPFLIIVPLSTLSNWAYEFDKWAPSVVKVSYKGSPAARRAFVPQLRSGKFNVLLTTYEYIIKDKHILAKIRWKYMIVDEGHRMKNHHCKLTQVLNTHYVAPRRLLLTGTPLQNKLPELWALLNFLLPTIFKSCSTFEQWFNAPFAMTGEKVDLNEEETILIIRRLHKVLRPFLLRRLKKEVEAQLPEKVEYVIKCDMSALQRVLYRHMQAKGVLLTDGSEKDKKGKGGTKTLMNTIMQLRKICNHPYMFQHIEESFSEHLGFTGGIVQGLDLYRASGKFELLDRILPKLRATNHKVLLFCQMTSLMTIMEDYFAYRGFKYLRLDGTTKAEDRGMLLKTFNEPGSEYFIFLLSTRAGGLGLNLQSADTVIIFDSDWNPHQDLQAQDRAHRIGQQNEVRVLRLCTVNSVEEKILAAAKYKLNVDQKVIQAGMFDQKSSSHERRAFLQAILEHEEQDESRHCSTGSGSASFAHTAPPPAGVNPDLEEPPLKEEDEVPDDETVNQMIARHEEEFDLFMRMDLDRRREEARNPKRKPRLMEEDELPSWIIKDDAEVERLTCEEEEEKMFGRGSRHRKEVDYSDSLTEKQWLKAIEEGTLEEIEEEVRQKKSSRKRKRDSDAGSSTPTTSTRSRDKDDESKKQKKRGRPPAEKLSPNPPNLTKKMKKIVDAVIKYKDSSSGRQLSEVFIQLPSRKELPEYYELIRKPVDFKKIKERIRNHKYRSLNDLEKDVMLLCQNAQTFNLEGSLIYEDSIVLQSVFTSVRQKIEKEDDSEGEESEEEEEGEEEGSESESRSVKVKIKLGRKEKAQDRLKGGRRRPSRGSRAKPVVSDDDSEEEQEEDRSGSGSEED
Compound,DC50 [1] [nM],BRM HiBit Degradation Maximum (%) [1],Dmax [2] [%],DC50 [2] [nM]
"Cc1ncsc1-c1ccc([C@H](C)NC(=O)[C@@H]2C[C@@H](O)CN2C(=O)[C@H](C(C)C)n2cc(-c3ccc4nnc(-c5ccccc5O)cc4c3Cl)nn2)cc1 [Compound 190, (2S,4R)-1-((S)-2-(4-(5-chloro-3-(2-hydroxyphenyl)cinnolin-6-yl)-1H-1,2,3-triazol-1-yl)-3-methylbutanoyl)-4-hydroxy-N-((S)-1-(4-(4-methylthiazol-5-yl)phenyl)ethyl)pyrrolidine-2-carboxamide]",< 10,A (“A” indicates maximum degradation ≥75%),< 50,
C#Cc1ccc([C@H](C)NC(=O)[C@@H]2C[C@@H](O)CN2C(=O)[C@@H](c2cc(N3CC4(CN(c5ccc6cc(-c7ccccc7O)nnc6c5)C4)C3)no2)C(C)C)c(Cl)c1 [Compound 284],< 10,A (“A” indicates maximum degradation ≥75%),< 50,
"Cc1ncsc1-c1ccc([C@H](C)NC(=O)[C@@H]2C[C@@H](O)CN2C(=O)[C@@H](c2cc(N3CCC4(CC3)CC(c3ccc5nnc(-c6ccccc6O)cc5c3)C4)no2)C(C)C)cc1 [Compound 71, (2S,4R)-4-hydroxy-1-[(2R)-2-(3-{2-[3-(2-hydroxyphenyl)cinnolin-6-yl]-7-azaspiro[3.5]nonan-7-yl}-1,2-oxazol-5-yl)-3-methylbutanoyl]-N-[(1S)-1-[4-(4-methyl-1,3-thiazol-5-yl)phenyl]ethyl]pyrrolidine-2-carboxamide]",< 10,A (“A” indicates maximum degradation ≥75%),> 75,< 10
"CNC(=O)[C@@H]1C[C@@H](O)CN1C(=O)[C@@H](c1cc(N2CC3(C2)CN(c2cc4nnc(-c5ccccc5O)cc4cc2OC)C3)no1)C(C)C [Compound 209, (2S,4R)-4-hydroxy-1-((R)-2-(3-(6-(3-(2-hydroxyphenyl)-6-methoxycinnolin-7-yl)-2,6-diazaspiro[3.3]heptan-2-yl)isoxazol-5-yl)-3-methylbutanoyl)-N-methylpyrrolidine-2-carboxamide]",< 10,A (“A” indicates maximum degradation ≥75%),< 50,
"Cc1ncsc1-c1ccc([C@H](C)NC(=O)[C@@H]2C[C@@H](O)CN2C(=O)[C@@H](c2cc(-c3cnc(N4CC[C@H](c5ccc6nnc(-c7ccccc7O)cc6c5)C4)nc3)no2)C(C)C)cc1 [Compound 49, (2S,4R)-4-hydroxy-1-((R)-2-(3-(2-((R)-3-(3-(2-hydroxyphenyl)cinnolin-6-yl)pyrrolidin-1-yl)pyrimidin-5-yl)isoxazol-5-yl)-3-methylbutanoyl)-N-((S)-1-(4-(4-methylthiazol-5-yl)phenyl)ethyl)pyrrolidine-2-carboxamide]",< 10,A (“A” indicates maximum degradation ≥75%),> 75,< 10
"Cc1ncsc1-c1ccc([C@H](C)NC(=O)[C@@H]2C[C@@H](O)CN2C(=O)[C@@H](c2ccnc(N3CC4(CN(c5ccc6nnc(-c7ccccc7O)cc6c5)C4)C3)c2)C(C)C)cc1 [Compound 160, (2S,4R)-4-hydroxy-1-[(2R)-2-(2-{6-[3-(2-hydroxyphenyl)cinnolin-6-yl]-2,6-diazaspiro[3.3]heptan-2-yl}pyridin-4-yl)-3-methylbutanoyl]-N-[(1S)-1-[4-(4-methyl-1,3-thiazol-5-yl)phenyl]ethyl]pyrrolidine-2-carboxamide]",,B (“B” indicates maximum degradation ≥50%),< 50,
"Cc1ncsc1-c1ccc([C@H](C)NC(=O)[C@@H]2C[C@@H](O)CN2C(=O)[C@@H](c2cc(N3CC4(CN(c5ccc6nnc(-c7ccccc7O)cc6c5)CCO4)C3)no2)C(C)C)cc1 [Compound 129, (2S,4R)-4-hydroxy-1-((R)-2-(3-(8-(3-(2-hydroxyphenyl)cinnolin-6-yl)-5-oxa-2,8-diazaspiro[3.5]nonan-2-yl)isoxazol-5-yl)-3-methylbutanoyl)-N-((S)-1-(4-(4-methylthiazol-5-yl)phenyl)ethyl)pyrrolidine-2-carboxamide]",< 10,A (“A” indicates maximum degradation ≥75%),< 50,
"Cc1ncsc1-c1ccc([C@H](C)NC(=O)[C@@H]2C[C@@H](O)CN2C(=O)[C@@H](c2cc(N3CC4(CN(c5ccc6cc(-c7ccccc7O)nnc6c5)C4)C3)n(C)n2)C(C)C)cc1 (single isomer, unassigned) [Compound 194]",> 100,A (“A” indicates maximum degradation ≥75%),< 50,
"Cc1ncsc1-c1ccc([C@H](C)NC(=O)[C@@H]2C[C@@H](O)CN2C(=O)[C@@H](c2cc(N3CCC4(CC3)CN(c3ccc5cc(-c6ccccc6O)nnc5c3)CCN4C)no2)C(C)C)cc1 [Compound 153, (2S,4R)-4-hydroxy-1-((R)-2-(3-(4-(3-(2-hydroxyphenyl)cinnolin-7-yl)-1-methyl-1,4,9-triazaspiro[5.5]undecan-9-yl)isoxazol-5-yl)-3-methylbutanoyl)-N-((S)-1-(4-(4-methylthiazol-5-yl)phenyl)ethyl)pyrrolidine-2-carboxamide]",< 10,A (“A” indicates maximum degradation ≥75%),< 50,
"Cc1ncsc1-c1ccc([C@H](C)NC(=O)[C@@H]2C[C@@H](O)CN2C(=O)[C@@H](c2cc(N3CC4(CN(Cc5ccc6nnc(-c7ccccc7O)cc6c5)C4)C3)no2)C(C)C)cc1 [Compound 245, (2S,4R)-4-hydroxy-1-((R)-2-(3-(6-((3-(2-hydroxyphenyl)cinnolin-6-yl)methyl)-2,6-diazaspiro[3.3]heptan-2-yl)isoxazol-5-yl)-3-methylbutanoyl)-N-((S)-1-(4-(4-methylthiazol-5-yl)phenyl)ethyl)pyrrolidine-2-carboxamide]",> 10,B (“B” indicates maximum degradation ≥50%),< 50,
"Cc1ncsc1-c1ccc([C@H](C)NC(=O)[C@@H]2C[C@@H](O)CN2C(=O)[C@@H](c2cc(-c3cnc(N4CC5(CN(c6ccc7nnc(-c8ccccc8O)cc7c6)C5)C4)nc3)no2)C(C)C)cc1 [Compound 243, (2S,4R)-4-hydroxy-1-((R)-2-(3-(2-(6-(3-(2-hydroxyphenyl)cinnolin-6-yl)-2,6-diazaspiro[3.3]heptan-2-yl)pyrimidin-5-yl)isoxazol-5-yl)-3-methylbutanoyl)-N-((S)-1-(4-(4-methylthiazol-5-yl)phenyl)ethyl)pyrrolidine-2-carboxamide]",< 10,A (“A” indicates maximum degradation ≥75%),> 75,< 10
"Cc1ncsc1-c1ccc([C@H](C)NC(=O)[C@@H]2C[C@@H](O)CN2C(=O)[C@H](C(C)C)n2cc(C3CC4(C3)CN(c3ccc5nnc(-c6ccccc6O)cc5c3)C4)nn2)cc1 [Compound 204, (2S,4R)-4-hydroxy-1-((S)-2-(4-(2-(3-(2-hydroxyphenyl)cinnolin-6-yl)-2-azaspiro[3.3]heptan-6-yl)-1H-1,2,3-triazol-1-yl)-3-methylbutanoyl)-N-((S)-1-(4-(4-methylthiazol-5-yl)phenyl)ethyl)pyrrolidine-2-carboxamide]",< 10,A (“A” indicates maximum degradation ≥75%),> 75,< 10
"Cc1ncsc1-c1ccc([C@H](C)NC(=O)[C@@H]2C[C@@H](O)CN2C(=O)[C@@H](c2cc(-c3cnc(N4CC(c5cc6nnc(-c7ccccc7O)cc6cc5C5CC5)C4)nc3)no2)C(C)C)cc1 [Compound 68, (2S,4R)-1-((R)-2-(3-(2-(3-(6-cyclopropyl-3-(2-hydroxyphenyl)cinnolin-7-yl)azetidin-1-yl)pyrimidin-5-yl)isoxazol-5-yl)-3-methylbutanoyl)-4-hydroxy-N-((S)-1-(4-(4-methylthiazol-5-yl)phenyl)ethyl)pyrrolidine-2-carboxamide]",< 10,A (“A” indicates maximum degradation ≥75%),> 75,> 10
"Cc1ncsc1-c1ccc([C@H](C)NC(=O)[C@@H]2C[C@@H](O)CN2C(=O)[C@@H](c2cc(N3CC4(C3)CN(c3cc5nnc(-c6ccccc6O)cc5cc3C#N)C4)no2)C(C)C)cc1 [Compound 167, (2S,4R)-1-((R)-2-(3-(6-(6-cyano-3-(2-hydroxyphenyl)cinnolin-7-yl)-2,6-diazaspiro[3.3]heptan-2-yl)isoxazol-5-yl)-3-methylbutanoyl)-4-hydroxy-N-((S)-1-(4-(4-methylthiazol-5-yl)phenyl)ethyl)pyrrolidine-2-carboxamide]",< 10,A (“A” indicates maximum degradation ≥75%),< 50,
"COc1cc2cc(-c3ccccc3O)nnc2cc1CN1CC[C@H](N2CCN(c3cc([C@H](C(=O)N4C[C@H](O)C[C@H]4C(=O)N[C@@H](C)c4ccc(-c5scnc5C)cc4)C(C)C)on3)CC2)C(F)(F)C1 [Compound 219, (2S,4R)-1-((R)-2-(3-(4-((S)-3,3-difluoro-1-((3-(2-hydroxyphenyl)-6-methoxycinnolin-7-yl)methyl)piperidin-4-yl)piperazin-1-yl)isoxazol-5-yl)-3-methylbutanoyl)-4-hydroxy-N-((S)-1-(4-(4-methylthiazol-5-yl)phenyl)ethyl)pyrrolidine-2-carboxamide]",< 10,A (“A” indicates maximum degradation ≥75%),> 75,> 10
